Assays:
Assay type in all cases: cell-based, human
ALDH1 = experiment: Western blot of ALDH1 in gemcitabine treated SP cells; details: gemcitabine (6 μM) treated SW1990-SP cells compared to non-treated SP cells
Procedure: (§1) SP and NSP cells were processed for protein extraction and western blotting using standard procedures. Briefly, the cells were washed twice in PBS and lysed in RIPA buffer (100 mM Tris, 5 mM EDTA, 5% NP40; pH8.0) containing protease inhibitors (1 mM phenyl-methyl sulphonyl fluoride, 1 μg/ml aprotinin, 1 μg/ml leupeptin) and kept at 4° C. and supernatant were collected. Resolved proteins were transferred on to the PVDF membrane. After a quick wash in PBST (Phosphate buffered saline and 0.1% Tween 20), the membranes were blocked in 5% nonfat dry milk in PBS for at least 1 hour and then incubated with primary antibodies (anti-hPaf1/PD2, anti-ALDH1, anti-CD133, anti-CD44, anti-Shh and anti-β-actin) (diluted in 3% BSA in PBS) for overnight at 4° C. Then the membrane was washed (3×10 minutes) in PBST at room temperature and probed with 1:2000 diluted horseradish peroxidase-conjugated anti-mouse or anti-rabbit secondary antibodies for 1 hour at room temperature and washed 5×10 minutes with PBST. The signal was detected with an ECL chemiluminescence kit (Amersham Bioscience, UK).
(§2) Tumor relapse occurs in cancer patients due to the important phenomena known as drug resistance. […] The expression of ALDH1 was analyzed in the gemcitabine treated SW1990-SP cells.

SW1990 NSP cells = experiment: Drug sensitivity: gemcitabine treatment of NSP cells; details: 6.0 μM gemcitabine, several days
Procedure: (§3) Both SP and NSP cells were cultured in gelatinized tissue culture dishes in stem cell specific medium containing Dulbecco's Modified Eagle's Medium (DMEM; GIBCO) and F12 supplemented with 10% ES specific fetal bovine serum (FBS; Invitrogen), L-glutamine (GIBCO), 100 nM nonessential amino acids (GIBCO), 1000 U/ml LIF (Sigma), bFGF (Invitrogen) and Pen/Strp. Two different conditions were maintained for both SP and NSP cells. First, both SP and NSP cells were maintained in the above-mentioned stem cell specific media and in another condition both the cells were maintained for a few days in 10% FBS containing DMEM media which was replaced with stem cell specific medium. The SP cells have also been grown in stem cell specific media and NSP cells have been grown in 10% FBS containing DMEM media.
(§4) The human hPaf1/PD2 region was targeted with specific siRNA (sequence 5′-[…]-3′; SEQ ID NO: 1). Synthetic sense and antisense oligonucleotides (Dharmacon, Lafayette, Colo.) were annealed in 100 mM potassium acetate, 30 mM HEPES-KOH (pH 7.4), and 2 mM magnesium acetate for one minute at 90° C. and one hour at 37° C., and frozen. […]
as §2

SW1990-SP cells [1] = experiment: hPaf1/PD2 knockdown with gemcitabine treatment in SP cells: phenotype, viability, FACS apoptosis
Procedure: The human hPaf1/PD2 region was targeted with specific siRNA (sequence 5′-[…]-3′; SEQ ID NO: 1). Synthetic sense and antisense oligonucleotides (Dharmacon, Lafayette, Colo.) were annealed in 100 mM potassium acetate, 30 mM HEPES-KOH (pH 7.4), and 2 mM magnesium acetate for one minute at 90° C. and one hour at 37° C., and frozen. Oligonucleotides were transfected into cells with TransIT-TKO (Mirus, Madison, Wis.) in accordance with the supplier's recommendations. Gemcitabine (6 μM) treatment was done for 20 days.
Following the previous drug sensitivity experiment, hPaf1/PD2 was transiently knocked down using RNAi oligos. The knockdown was carried out in vitro under stem cell specific culture condition.

SW1990-SP cells [2] = experiment: Drug sensitivity: gemcitabine treatment of SP cells; details: 6.0 μM gemcitabine, 4, 10 and 20 days
Procedure: as §3, §4, §2

hPaf1/PD2 = experiment: Western blot of hPaf1/PD2 in gemcitabine treated SP cells; details: gemcitabine (6 μM) treated SW1990-SP cells compared to untreated SP cells
Procedure: as §1

Nc1ccn([C@@H]2O[C@H](CO)[C@@H](O)C2(F)F)c(=O)n1 [gemcitabine]
expression of ALDH1 (western blot) (ALDH1): significantly elevated expression of ALDH1
cell death of NSP cells on drug treatment (SW1990 NSP cells): Cell death was observed
percentage of cell death (FACS-apoptosis analysis, PI staining) (SW1990-SP cells [1]; hPaf1/PD2 knockdown SP cells with gemcitabine treatment compared to control cells): increased percentage of cell death
viability of SP cells (SW1990-SP cells [1]; seven days gemcitabine with transient knockdown (72 hours) of hPaf1/PD2 in SW1990-SP cells): decreased the viability of SP cells
growth of SP cells on drug treatment (SW1990-SP cells [2]): continued to grow even after 4, 10 and 20 days of treatment
expression of hPaf1/PD2 (western blot) (hPaf1/PD2): maintained

From patent publication US9233121B2, “Compositions and methods for the treatment of cancer” (BOARD OF REGENTS OF THE UNIVERSITY OF NEBRASKA, priority 2011, dated 2016)
